What is called Kd is a measure of binding affinity in units of concentration.

Like-named read-outs stand apart in the source and are kept apart here.

For experiment [1] the following is noted: solution; cited from earlier work.
The test system of experiment [2] is D-VSR. Briefly: Cantilever binding assay against D-VSR coated cantilevers. The procedure:
(§1) In the case of preparation of unpassivated cantilever, SAMs of D-VSR, L-VSR and inert PEG molecules were diluted to a concentration of 1 μM in pure ethanol. The diluted SAMs were individually injected into glass capillary tubes (King Precision Glass, Claremont, Calif., USA) which were arranged on the functionalization stage. The cantilevers were then functionalized by incubating them with individual SAMS inside the glass capillaries for 20 min. Care was taken to ensure that the hinge region was entirely covered with the SAM solution in order to ensure mechanical connectivity between the transduction arrays and hinge region.
(§2) Finally, learning from enantiomeric molecules, although identical in structure and are mirror images of one another with different physical characteristics, could be used to test the impact of the regulatory connectivity networks on the biomechanical forces involved in molecular interactions. So it was inferred that in chiral species the level of complementarity between a drug and its target will lead to different assemblies across the mirror images of the surface receptors and this can be reflected in the distinguishable biomechanical forces. To test this concept the interaction of the D-VSR and its corresponding mirror image (L-VSR) (see, Cantilever functionalization with surface target molecules) with the antibiotic drug vancomycin was studied. D-VSR is an enantiomer predominantly found in bacterial cell walls whereas L-VSR is not produced by bacteria. […] The mechanical response obtained using a high concentration of Van (50 μM) against 100 μm wide parallel transduction arrays of D-VSR and L-VSR was initially tested. […] In contrast the signal response of Van against L-VSR was very small ˜−200 pN, approximately 20 times smaller than with D-VSR (FIG. 5a). The experiment was repeated using a wide range of different concentrations of Van (0.1-1000 μM) on at least four separate chips.
(§3) Functionalized cantilever chips were mounted in a sealed liquid cell environment and a time-multiplexed optical laser readout system (Scentris, Veeco Instruments Inc., Santa Barbara, Calif., USA) was used to measure the cantilever bending. The laser alignment was considered successful if the difference between the minimum and maximum deflection was <5% when the cell temperature was raised by 1° C. for 10 min followed by 10 min cooling to room temperature. […]
(§4) The biomechanical force data from ligand-receptor interactions were measured as follows: sodium phosphate buffer (pH 7.4, 0.1 M) was injected into the cell for either 3 or 10 min to establish a baseline. […] Cantilever bending signals were measured in a fixed temperature-controlled hood at 25° C. using a liquid flow rate of 30-180 μL min^−1. […]

For experiment [3], the system named is vancomycin susceptible receptor (VSR). Briefly: Cantilever binding assay, vancomycin against VSR coated cantilevers. The procedure:
as §1
The finding that a signal response is detectable even when the assembling of array networks is confined to only 30 μm of the geometrical width of the region covered while the corresponding geometeric length is fixed at 500 μm of the cantilever, prompted us to examine whether changing the dimensions of the cantilever itself whilst maintaining the mechanical connectivity of surface receptors has any impact on the signal sensitivity and reproducibility. This is because the dimensions of a sensing element can greatly impact on the signal response in several ways (1) the threshold size of the ligand capture cross-section area that is able to generate mechanical signaling decreases when the size of the sensing element is reduced, (2) the biomechanical force impacting on the sensing element is more pronounced for a narrow sensing element, and (3) the narrower the sensing element, the less rigid it is and the more responsive it will be to molecular forces. Further, continuous mechanical connectivity can be effected by the edging effects at the perimeter of the sensor itself and its impact would be more pronounced for narrower sensing elements (FIG. 1b). The effect on signal response by reducing the conventional cantilever width from 100 μm to 70 μm whilst keeping the length and thickness at 500 μm and 1 μm, respectively, was examined. These dimensions were chosen because they enable the narrowed cantilever to be used with standard instruments without the need for redesigning equipment. In addition, at this width the cantilever is less affected by the capillary forces and static charges which may render careful alignment of the scanning laser at the free-end more difficult. For this experiment vancomycin (Van) as the reporter molecule and vancomycin-susceptible receptor (or VSR)^21 as its target were used. Van is the Food and Drug Administration (FDA)-approved drug of last resort for clinical treatment of MRSA and clostridium difficile infections^38,39. This particular system was chosen because it gives relatively large signals and it has been previously shown that the quantitative Van-VSR binding constants can be measured^21 and so it can be used to redefine the limit of recognition of biologically relevant systems. The entire surface of the cantilever including the hinge region was coated with VSR using glass capillares (See Cantilever functionalization with surface target molecules). Artefacts that produce non-specific signals were overcome by performing differential measurements where the reference mercaptoundecyl tri(ethylene glycol) thiol (PEG)-coated cantilever signals was subtracted from the VSR signals. […] The signal response obtained from all three cantilevers was highly consistent and almost identical over a 60 min time period. Moreover, the compressive signal response was relatively high averaging −400±30 pN with a signal-to-noise ratio (SNR) of 7. […] Next, the impact of different concentrations on signal response initially fixed at 20, 50, 500 and 1000 nM (FIG. 4b-d) was examined. […] The thermodynamic pseudo-equilibrium signal response was attained at 60 and 50 min for 20 nM and 50 nM Van, respectively. In contrast, the thermodynamic pseudo-equilibrium was achieved within 6 min or less for Van concentrations ≥500 nM. […]

The conditions of experiment [4]: SPR; cited from earlier work. (SPR reads the build-up and loss of mass on a sensor chip optically.)
The subject of experiment [5] is L-VSR. Briefly: Cantilever binding assay against L-VSR coated cantilevers. As to conditions: for biomechanical force / signal response: 50 μM ligand, sodium phosphate buffer pH 7.4, L-VSR coated cantilevers; for signal response over concentration range: all concentrations of ligand. On the procedure:
as §1, §2, §3, §4

Turning to `CN[C@H](CC(C)C)C(=O)N[C@H]1C(=O)N[C@@H](CC(N)=O)C(=O)N[C@H]2C(=O)N[C@H]3C(=O)N[C@H](C(=O)N[C@H](C(=O)O)c4cc(O)cc(O)c4-c4cc3ccc4O)[C@H](O)c3ccc(c(Cl)c3)Oc3cc2cc(c3O[C@@H]2O[C@H](CO)[C@@H](O)[C@H](O)[C@H]2O[C@H]2C[C@](C)(N)[C@H](O)[C@H](C)O2)Oc2ccc(cc2Cl)[C@H]1O` [Van, vancomycin], the dissociation constant Kd was 700 nM in experiment [1]; 500 ± 100 nM in experiment [3] (100 μm and 70 μm cantilevers, read-out: Kd (surface thermodynamic equilibrium dissociation constant, equation (1))); 1000 ± 300 nM in experiment [4]. The “ratio of signal response D-VSR versus L-VSR” value in experiment [2] (50 μM ligand) was “approximately 20 times”. Moreover, the “ligand concentration at which plateau was reached” value in experiment [2] (0.1-1000 μM Van) stood at 50 µM. Further, the signal response entry in experiment [3] (500 pM Van, 100 μm wide cantilevers) is “no signal response”; in experiment [3] (1 μM Van, conventional 100 μm wide cantilevers), −120 nm. Moreover, the “mechanical force / signal response” value in experiment [3] (500 pM Van, pH 7.4, small sized (70 μm wide) cantilever, three separate cantilevers) was −400±30 pN. Moreover, the “Van concentration at which signal response reached a plateau” value in experiment [3] (0.0005 μM to 250 μM Van, narrow cantilevers) turned out to be 10 µM. Further, the “time to thermodynamic pseudo-equilibrium signal response” value turned out to be 60 min in experiment [3] (20 nM Van) and 50 min in experiment [3] (50 nM Van). Moreover, the biomechanical force response in experiment [3] (20 nM Van, small sized cantilever) is listed as about −500 pN; in experiment [3] (50 nM Van, small sized cantilever) it was about −1500 pN; in experiment [3] (500 nM Van, small sized cantilever), about −3000 pN. The molecule further displayed a mechanical force response in experiment [3] (1 μM Van, 3 separate small sized cantilevers) of about −5000±400 pN. Further, the “time to thermodynamic pseudo-equilibrium” value in experiment [3] (Van concentrations ≥500 nM) is reported as at most 6 min. Further, in experiment [3] (all concentrations of Van), the “reversibility of signal response” value was “reversible”. For the same molecule, the “mechanical forces arising from [Van] against VSR (plot)” value in experiment [3] (large sized cantilever) is recorded as about −3800 pN; in experiment [3] (small sized cantilever), about −6900 pN. Also, in experiment [5], the “biomechanical force / signal response” value is reported as about −200 pN. The “signal response over concentration range” value in experiment [5] is reported as “only a small signal response”.
Regarding ristocetin, in experiment [2] (50 μM ligand), the “ratio of signal response D-VSR versus L-VSR” value was “approximately 3 times”. The “biomechanical force / mechanical response” value in experiment [2] (50 μM ligand, sodium phosphate buffer pH 7.4, D-VSR coated 100 μm wide cantilevers) is reported as about −5000 pN. For the same molecule, in experiment [5], the “biomechanical force / signal response” value is about −2000 pN and the “signal response over concentration range” value is listed as “remained small compared to D-VSR”.

These data come from US20200215537A1, “ULTRASENSITIVE CANTILEVER” (3P SENSE LIMITED, priority 2017, published 2020).
